Results: US10227331B2 (priority 2015, dated 2019)

Assays:
[1] = biological target: IMP-1 (Serratia marcescens, UniProt P52699); assay: biochemical; type: biochemical; details: CCF2-FA substrate, 2 hours at 25° C; read-out: IMP-1 IC50
Procedure, shortened: (§1)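 Fluorescence assay of metallo-β-lactamase activity using CCF2-FA, a cephalosporin-linked 7-hydroxycoumarin–fluorescein substrate. Inhibitor, enzyme and substrate were incubated together for 2 hours at 25° C. IC50 came from a 4-parameter fit of inhibition versus inhibitor concentration.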

[2] = biological target: NDM-1 (Klebsiella pneumoniae, UniProt C7C422); assay: biochemical; type: biochemical; details: CCF2-FA substrate, 2 hours at 25° C; read-out: NDM-1 IC50
Sequence of NDM-1 (C7C422 whole entry, looked up, species assumed): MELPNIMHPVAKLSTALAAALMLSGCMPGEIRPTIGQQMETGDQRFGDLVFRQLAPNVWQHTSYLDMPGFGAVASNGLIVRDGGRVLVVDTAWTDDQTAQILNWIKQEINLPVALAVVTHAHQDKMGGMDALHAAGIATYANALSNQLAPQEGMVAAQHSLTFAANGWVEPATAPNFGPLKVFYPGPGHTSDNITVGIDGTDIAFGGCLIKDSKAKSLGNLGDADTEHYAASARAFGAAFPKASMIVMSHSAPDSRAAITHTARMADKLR
Procedure, shortened: as §1

[3] = biological target: VIM-1 (Pseudomonas aeruginosa (strain ATCC 15692 / DSM 22644 / CIP 104116 / JCM 14847 / LMG 12228 / 1C / PRS 101 / PAO1), UniProt A0A0F7KYQ8); assay: biochemical; details: CCF2-FA substrate, 2 hours at 25° C
Procedure, shortened: as §1

[4] = tested on: Escherichia coli expressing NDM-1 (CLB30005, CLB30016); type: cell-based; details: NDM-1 (CLB30016), with imipenem 1 μg/ml, 95% inhibition of bacterial growth
Procedure, shortened: (§2)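 Clinical strains grown overnight on blood agar, then diluted 1:100 in 1.1× CAMHB and exposed to test compound with imipenem at 1 μg/ml. Incubation was 22–24 h at 35° C; growth was read by absorbance to find the compound concentration restoring imipenem susceptibility.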

[5] = tested on: Klebsiella pneumoniae expressing VIM-1 (IHMA599644); type: cell-based; details: VIM-1 (IHMA599644), with imipenem 1 μg/ml, 95% inhibition of bacterial growth
Procedure, shortened: as §2

[6] = tested on: Serratia marcescens expressing IMP-1 (CL5741); type: cell-based; details: IMP-1 (CL5741), with imipenem 1 μg/ml, 95% inhibition of bacterial growth
Procedure, shortened: as §2

[7] = tested on: P. aeruginosa expressing IMP-1, efflux+ (MB9798); type: cell-based, Pseudomonas aeruginosa; details: for P. aeruginosa expressing IMP-1, efflux+ (MB9798) MITC95: imipenem at 2 μg/mL, in the presence of a class A, C, D serine β-lactamase inhibitor closely related to relebactam; for Efflux ratio: ratio MITC95 PA_9798/MITC95 PA_9799
Description: (§3) The strain background is Pseudomonas aeruginosa PAO1.

[8] = tested on: P. aeruginosa expressing IMP-1, efflux− (MB9799); assay: Efflux: concentration of MBL inhibitor which restores susceptibility to imipenem; type: cell-based, Pseudomonas aeruginosa; details: imipenem at 2 μg/mL, in the presence of a class A, C, D serine β-lactamase inhibitor closely related to relebactam
Description: as §3

Sequence of IMP-1 (P52699 whole entry, looked up, species assumed): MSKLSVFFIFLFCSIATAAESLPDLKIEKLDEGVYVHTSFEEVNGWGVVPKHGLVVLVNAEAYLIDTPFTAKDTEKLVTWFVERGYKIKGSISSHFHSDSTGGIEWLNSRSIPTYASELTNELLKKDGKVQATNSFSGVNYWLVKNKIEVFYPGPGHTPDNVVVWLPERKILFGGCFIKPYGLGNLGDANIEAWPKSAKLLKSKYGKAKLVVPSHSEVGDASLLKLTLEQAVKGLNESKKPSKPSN

Compound	IC50 [1] [pM]	IC50 [2] [pM]	IC50 [3] [pM]	Escherichia coli MITC95 [4] [µM]	Klebsiella pneumoniae MITC95 [5] [µM]	Serratia marcescens MITC95 [6] [µM]	P. aeruginosa expressing IMP-1, efflux+ (MB9798) MITC95 [7] [µM]	Efflux ratio [7]	P. aeruginosa expressing IMP-1, efflux− (MB9799) MITC95 [8] [µM]
N#Cc1ccc(-c2ccc(S(=O)(=O)CCN)c(S(N)(=O)=O)c2-c2nnn[nH]2)c2[nH]c(N)nc12 [Example 295, 3-(2-amino-4-cyano-1H-benzo[d]imidazol-7-yl)-6-((2-aminoethyl)sulfonyl)-2-(1H-tetrazol-5-yl)benzenesulfonamide]	1220	116	105	1.563	3.125	3.125	1.563	1.00	1.563
NS(=O)(=O)c1c(S(=O)(=O)C2CNC2)ccc(-c2cccc3cn[nH]c23)c1-c1nnn[nH]1 [Example 297, 6-(azetidin-3-ylsulfonyl)-3-(1H-indazol-7-yl)-2-(1H-tetrazol-5-yl)benzenesulfonamide]	596	217	282	1.563	3.125	1.563	1.563	2.00	0.7813
NCCS(=O)(=O)c1ccc(-c2cccc3cn[nH]c23)c(-c2nnn[nH]2)c1S(N)(=O)=O [Example 298, 6-((2-aminoethyl)sulfonyl)-3-(1H-indazol-7-yl)-2-(1H-tetrazol-5-yl) benzenesulfonamide]	300	425	257	0.7813	1.563	1.563	1.563	2.00	0.7813
NS(=O)(=O)c1c(S(=O)(=O)C2CNC2)ccc(-c2cccc3[nH]c(=O)[nH]c23)c1-c1nnn[nH]1 [Example 299, 6-(azetidin-3-ylsulfonyl)-3-(2-oxo-2,3-dihydro-1H-benzo[d]imidazol-4-yl)-2-(1H-tetrazol-5-yl) benzenesulfonamide]	1450	188	302	3.125	6.25	3.125	3.125	1.00	3.125
NCCS(=O)(=O)c1ccc(-c2cccc3[nH]c(=O)[nH]c23)c(-c2nnn[nH]2)c1S(N)(=O)=O [Example 300, 6-((2-aminoethyl)sulfonyl)-3-(2-oxo-2,3-dihydro-1H-benzo[d]imidazol-4-yl)-2-(1H-tetrazol-5-yl) benzenesulfonamide]	415	254	162	0.7813	3.125	1.563	1.563	2.00	0.7813
NS(=O)(=O)c1c(S(=O)(=O)C2CNC2)ccc(-c2cncc3[nH]c(=O)[nH]c23)c1-c1nnn[nH]1 [Example 301, 6-(azetidin-3-ylsulfonyl)-3-(2-oxo-2,3-dihydro-1H-imidazo[4,5-c]pyridin-7-yl)-2-(1H-tetrazol-5-yl)benzenesulfonamide]	2870	536	960	0.7813	6.25	3.125	3.125	2.00	1.563
NCCS(=O)(=O)c1ccc(-c2cccc3nc(C(=O)O)nn23)c(-c2nnn[nH]2)c1S(N)(=O)=O [Example 304, 5-(4-((2-aminoethyl)sulfonyl)-3-sulfamoyl-2-(1H-tetrazol-5-yl)phenyl)-[1,2,4]triazolo [1,5-a]pyridine-2-carb oxylic Acid]	5360	214	478	6.25	50	6.25	25	2.00	12.5
